Patent US8586751B2, “Nicotinamide compounds useful as kinase modulators” (Bristol-Myers Squibb Company, priority 2009, dated 2013)

Tests used:
human recombinant Btk = biological target: T1, human recombinant Btk (Homo sapiens, UniProt Q06187); assay: Human Recombinant Btk Enzyme Assay (LLE_BTK); format: biochemical
T1 construct: purchased Invitrogen Corporation
Description: Human Recombinant Btk Enzyme Assay
To V-bottom 384-well plates were added test compounds, human recombinant Btk (1 nM, Invitrogen Corporation), fluoresceinated peptide (1.5 μM), ATP (20 μM), and assay buffer (20 mM HEPES pH 7.4, 10 mM MgCl2, 0.015% Brij35 and 4 mM DTT in 1.6% DMSO), with a final volume of 30 μL. After incubating at room temperature for 60 min, the reaction was terminated by adding 45 μl of 35 mM EDTA to each sample. The reaction mixture was analyzed on the Caliper LABCHIP® 3000 (Caliper, Hopkinton, Mass.) by electrophoretic separation of the fluorescent substrate and phosphorylated product. Inhibition data were calculated by comparison to no enzyme control reactions for 100% inhibition and no inhibitor controls for 0% inhibition. Dose response curves were generated to determine the concentration required inhibiting 50% of kinase activity (IC50). Compounds were dissolved at 10 mM in dimethylsulfoxide (DMSO) and evaluated at eleven concentrations.
Using this assay, the following IC50 values derived by non-linear regression analysis were determined and compared to those values of certain compounds in U.S. Publication No. 2007/078136 and U.S. Publication No. 2008/045536.

[1] = tested on: Ramos B cells with beta-lactamase reporter gene under control of an NFAT response element; assay: NFAT-bla RA1 Reporter Assay (Ramos-NFAT); format: cell-based, human; conditions: Homo sapiens, Ramos, read-out: IMM Ramos-NFAT (IC50)
Description: NFAT-bla RA1 Reporter Assay
Ramos B cells containing a stable integration of a beta-lactamase reporter gene under the control of an NFAT response element (NFAT-bla RA1, Invitrogen, K1434) at a density of 100×10^3 cells/well were incubated with test compounds at 37° C. for 30 min prior to stimulation with F(ab′)2 anti-human IgM (Jackson ImmunoResearch, 109-006-129) at 2.5 μg/ml for 4.5 hrs at 37° C. After stimulation, LiveBLAzer-FRET B/G substrate (CCF2/AM, or CCF4/AM, Invitrogen) was added to each well and incubated for 90 min at room temperature in the dark. Assay plates were read on an LJL Analyst, with raw emission values subtracted from a media-only blank containing substrate in assay media (no cells). The ratios of 460 nm/530 nm emission (405 nm excitation) were used to calculate the amount of stimulation.

T1 sequence (Q06187 whole entry): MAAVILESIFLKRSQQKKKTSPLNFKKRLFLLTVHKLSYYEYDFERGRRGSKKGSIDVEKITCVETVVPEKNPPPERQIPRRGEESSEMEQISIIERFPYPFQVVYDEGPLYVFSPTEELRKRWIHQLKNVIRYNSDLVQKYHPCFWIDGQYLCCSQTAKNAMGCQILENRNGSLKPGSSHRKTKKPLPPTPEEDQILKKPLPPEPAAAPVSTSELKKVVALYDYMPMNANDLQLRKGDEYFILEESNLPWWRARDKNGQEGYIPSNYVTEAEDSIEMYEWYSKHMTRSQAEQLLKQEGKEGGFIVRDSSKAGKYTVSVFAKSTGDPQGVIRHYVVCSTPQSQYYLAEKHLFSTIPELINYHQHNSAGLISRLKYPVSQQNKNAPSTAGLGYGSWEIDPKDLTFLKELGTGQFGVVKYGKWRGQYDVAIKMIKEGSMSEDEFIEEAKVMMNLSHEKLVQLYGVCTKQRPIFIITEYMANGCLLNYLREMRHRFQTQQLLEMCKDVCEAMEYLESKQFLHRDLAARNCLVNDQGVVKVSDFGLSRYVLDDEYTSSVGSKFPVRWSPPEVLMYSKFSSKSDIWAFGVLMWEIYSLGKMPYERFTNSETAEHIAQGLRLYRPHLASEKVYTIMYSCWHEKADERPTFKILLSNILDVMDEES

SMILES | IC50 (human recombinant Btk) [nM] | IC50 [1] [nM]
NC(=O)c1ccc(N2CCNCC2)nc1Nc1ccc(C(=O)N2CCOCC2)cc1 [Example 10, 2-(4-(Morpholine-4-carbonyl)phenylamino)-6-(piperazin-1-yl)nicotinamide] | 1800 | 
Cc1csc(NC(=O)N[C@@H]2CCCN(c3ccc(C(N)=O)c(Nc4ccc(N5CCN(C)CC5)cc4)n3)C2)n1 [Example 12, (R)-2-(4-(4-Methylpiperazin-1-yl)phenylamino)-6-(3-(3-(4-methylthiazol-2-yl)ureido)piperidin-1-yl)nicotinamide] | 7 | 40
NC(=O)c1cc(F)c(N2CCCCC2)nc1Nc1ccc(F)cc1 [Example 15, 5-Fluoro-2-(4-fluorophenylamino)-6-(piperidin-1-yl)nicotinamide] | 870 | 
CS(=O)(=O)c1ccc(Nc2nc(N3CCCC4(CC(c5ccccc5)=NO4)C3)ccc2C(N)=O)cc1 (centres unmarked) [Example 29, 2-((4-(Methylsulfonyl)phenyl)amino)-6-(3-phenyl-1-oxa-2,7-diazaspiro[4.5]dec-2-en-7-yl)nicotinamide] | 1 | 160
CC(C)(C)c1ccc(C(=O)Nc2cccc(-c3ccc(C(N)=O)c(Nc4ccc(C(=O)N5CCOCC5)cc4)n3)c2)cc1 [Example 37] | 1400 | 
CC(C)(C)OC(=O)N[C@@H]1CCN(c2ccc(C(N)=O)c(Nc3ccc(C(=O)N4CCOCC4)cc3)n2)C1 [Example 44] | 750 | 
NC(=O)c1ccc(N2CC[C@@H](N)C2)nc1Nc1ccc(C(=O)N2CCOCC2)cc1 [Example 45] | 2100 | 
NC(=O)c1ccc(N2CC[C@@H](NC(=O)c3ccc(C(F)(F)F)cc3)C2)nc1Nc1ccc(C(=O)N2CCOCC2)cc1 [Example 50] | 740 | 
CC(=O)c1ccccc1-c1ccc(C(N)=O)c(Nc2ccc(C(=O)N3CCOCC3)cc2)n1 [Example 132] | 1000 | 
NC(=O)c1ccc(-c2ccc(Cl)c(C(F)(F)F)c2)nc1Nc1ccc(C(=O)N2CCOCC2)cc1 [Example 143] | 1200 | 
Cc1ccc(NC(=O)c2ccc(C(C)(C)C)cc2)cc1-c1ccc(C(N)=O)c(Nc2ccc(C(=O)N3CCOCC3)cc2)n1 [Example 162] | 1400 | 
CC(C)(C)c1ccc(NC(=O)[C@@H]2CCN(c3ccc(C(N)=O)c(Nc4ccc(C(=O)N5CCOCC5)cc4)n3)C2)cc1 [Example 163] | 1500 | 
CC(C)(C)c1ccc(NC(=O)[C@@H]2CCCN(c3ccc(C(N)=O)c(Nc4ccc(C(=O)N5CCOCC5)cc4)n3)C2)cc1 [Example 164] | 2700 | 
NC(=O)c1ccc(N2CCC[C@@H](C(=O)O)C2)nc1Nc1ccc(C(=O)N2CCOCC2)cc1 [Example 165] | 2900 | 
NC(=O)c1ccc(N2CCC[C@@H](NC(=O)c3cccc(-c4nc5ccccc5[nH]4)c3)C2)nc1Nc1ccc(C(=O)N2CCOCC2)cc1 [Example 263] | 0.9 | 5700
Cc1ccc(NC(=O)N[C@@H]2CCCN(c3ccc(C(N)=O)c(Nc4ccc(N5CCN(C)CC5)cc4)n3)C2)cc1C [Example 283] | 10 | 120
CN1CCN(c2ccc(Nc3nc(N4CCC[C@@H](NC(=O)Nc5nccs5)C4)ccc3C(N)=O)cc2)CC1 [Example 284] | 7 | 60
CC(C)(C)OC(=O)N[C@@H]1CCCN(c2ccc(C(N)=O)c(Nc3ccccc3)n2)C1 [Example 295] | 1700 | 
NC(=O)c1ccc(NCc2ccccc2)nc1Nc1ccccc1 [Example 298] | 12000 | 
NC(=O)c1ccc(N2CCC[C@@H](N)C2)nc1Nc1ccccc1 [Example 299] | 1500 | 
Cc1ccc(NC(=O)N[C@@H]2CCCN(c3ccc(C(N)=O)c(Nc4ccccc4)n3)C2)cc1C [Example 300] | 1300 | 
N#Cc1ccc(Nc2nc(N3CCC[C@@H](N)C3)ccc2C(N)=O)cc1 [Example 302] | 880 | 
CC(C)(C)OC(=O)c1ccc(Nc2nc(N3CCCCC3)ccc2C(N)=O)cc1 [Example 314] | 1800 | 

SMILES | IC50 (human recombinant Btk) [nM] | IC50 [1] [nM]
NC(=O)c1ccc(N2CCCCC2)nc1Nc1ccc(C(=O)Nc2ccccc2)cc1 [Example 323] | 780 | 
COc1cccc(Nc2nc(N3CCC[C@@H](NC(=O)Nc4nc(C)cs4)C3)ccc2C(N)=O)c1 [Example 331] | 780 | 
Cc1csc(NC(=O)N[C@@H]2CCCN(c3ccc(C(N)=O)c(Nc4ccc(N5CCOCC5)cc4)n3)C2)n1 [Example 337] | 760 | 
NC(=O)c1ccc(-c2cccc3c2CCNC3)nc1Nc1ccc(-c2cnco2)cc1 [Example 345] | 900 | 920
NC(=O)c1ccc(-c2cccc3c2CCN(C(=O)c2ccccc2)C3)nc1Nc1ccc(-c2cnco2)cc1 [Example 346] | 2900 | 10000
CC(=O)N1CCc2c(cccc2-c2ccc(C(N)=O)c(Nc3ccc(-c4cnco4)cc3)n2)C1 [Example 347] | 2000 | 10000
CCN1CCN(c2ccc(Nc3nc(N4CCC[C@@H](NC(=O)c5ccccc5)C4)ccc3C(N)=O)cc2)CC1 [Example 354] | 4 | 100
CC(C)N1CCN(c2ccc(Nc3nc(N4CCC[C@@H](NC(=O)c5ccccc5)C4)ccc3C(N)=O)cc2)CC1 [Example 357] | 4 | 100
CC(=O)N1CCN(c2ccc(Nc3nc(N4CCC[C@@H](NC(=O)Nc5ccc(C)c(C)c5)C4)ccc3C(N)=O)cc2)CC1 [Example 361] | 9 | 100
CS(=O)(=O)Nc1cccc(Nc2nc(-c3ccc(Cl)cc3)ccc2C(N)=O)c1 [Example 375] | 1200 | 
CN(c1cccc(Nc2nc(-c3ccc(Cl)cc3)ccc2C(N)=O)c1)S(=O)(=O)Cc1ccccc1 [Example 376] | 6900 | 
CNc1cccc(Nc2nc(-c3ccc(Cl)cc3)ccc2C(N)=O)c1 [Example 380] | 3200 | 
CN(c1cccc(Nc2nc(-c3ccc(Cl)cc3)ccc2C(N)=O)c1)S(=O)(=O)c1ccccc1 [Example 381] | 1000 | 
NC(=O)c1cc(F)c(N2CCC[C@@H](NC(=O)Nc3nccs3)C2)nc1Nc1ccc(C(=O)N2CCOCC2)cc1 [Example 382] | 2 | 800
CN1CCN(c2ccc(Nc3nc(N4CCC[C@@H](NC(=O)Nc5nccs5)C4)c(F)cc3C(N)=O)cc2)CC1 [Example 385] | 3 | 20
CNC(=O)c1ccc(N2CCC[C@@H](NC(=O)c3ccc(C(C)(C)C)cc3)C2)nc1Nc1ccc(C(=O)N2CCOCC2)cc1 [Example 442] | 2600 | 
CN1CCC(C)(c2ccc(Nc3nc(N4CCC[C@@H](NC(=O)Nc5nnc(C(C)(C)C)s5)C4)c(F)cc3C(N)=O)cc2)CC1 [Example 494] | 0.6 | 
COc1cc(Nc2nc(N3CCC[C@@H](NC(=O)c4ccccc4)C3)c(F)cc2C(N)=O)ccc1OCCNC1CC1 [Example 511] | 730 | 
CN(C(=O)Nc1ccccc1)c1cccc(Nc2nc(N3CCOCC3)c(F)cc2C(N)=O)c1 [Example 529] | 1000 | 
NC(=O)c1cc(F)c(N2CCOCC2)nc1Nc1cccc(CS(=O)(=O)N2CCCC2)c1 [Example 533] | 22000 | 
NC(=O)c1cc(F)c(N2CCOCC2)nc1Nc1cccc(N(S(=O)(=O)CCCCl)S(=O)(=O)CCCCl)c1 [Example 535] | 980 | 
CN(c1cccc(Nc2nc(N3CCOCC3)c(F)cc2C(N)=O)c1)S(=O)(=O)c1ccc(-c2ccccc2)cc1 [Example 537] | 1100 | 
CN(c1cccc(Nc2nc(N3CCOCC3)c(F)cc2C(N)=O)c1)S(=O)(=O)c1cccc2ccccc12 [Example 538] | 1200 | 
